# “Also recorded” adds a separate entry of the source. Where two headings read alike, the source gives them in different places.
# Legend:
# [1] = Bleeding time after tail incision in rats; format: in vivo, Sprague-Dawley rats; conditions: for Estimated equipotent doses with respect to effects on bleeding time, normalized vs. heparin: rats, i.v. dosing, heparin = 1
# Procedure: (§1) Test procedures were as follows:
# The incision was 9 mm long and 1 mm deep and was standardized using a template device. Blood was blotted from the incision until bleeding stopped. The time during which visible bleeding could be observed was measured, for up to 25 minutes. The longer the bleeding time, the more pronounced the anti-coagulant effects of the administered agent.
# (§2) Saline: (Negative Control) • 3.
# [2] = APTT in citrate plasma of dosed rats; format: in vivo, Sprague-Dawley rats; conditions: i.v. dosing, heparin = 1
# Procedure: as §1
# Citrate stabilized plasma was prepared from the blood.
# as §2
# human P-selectin = biological target: T1, human P-selectin (Homo sapiens, UniProt P16109); experiment: Binding to P-selectin analyzed by optical biosensor (surface plasmon resonance, Biacore 2000); conditions: read-out: apparent KD
# T1 construct: Fc (IgG Fc fusion partner)
# T1 sequence (P16109 with tags, fused parts or gaps limits assumed): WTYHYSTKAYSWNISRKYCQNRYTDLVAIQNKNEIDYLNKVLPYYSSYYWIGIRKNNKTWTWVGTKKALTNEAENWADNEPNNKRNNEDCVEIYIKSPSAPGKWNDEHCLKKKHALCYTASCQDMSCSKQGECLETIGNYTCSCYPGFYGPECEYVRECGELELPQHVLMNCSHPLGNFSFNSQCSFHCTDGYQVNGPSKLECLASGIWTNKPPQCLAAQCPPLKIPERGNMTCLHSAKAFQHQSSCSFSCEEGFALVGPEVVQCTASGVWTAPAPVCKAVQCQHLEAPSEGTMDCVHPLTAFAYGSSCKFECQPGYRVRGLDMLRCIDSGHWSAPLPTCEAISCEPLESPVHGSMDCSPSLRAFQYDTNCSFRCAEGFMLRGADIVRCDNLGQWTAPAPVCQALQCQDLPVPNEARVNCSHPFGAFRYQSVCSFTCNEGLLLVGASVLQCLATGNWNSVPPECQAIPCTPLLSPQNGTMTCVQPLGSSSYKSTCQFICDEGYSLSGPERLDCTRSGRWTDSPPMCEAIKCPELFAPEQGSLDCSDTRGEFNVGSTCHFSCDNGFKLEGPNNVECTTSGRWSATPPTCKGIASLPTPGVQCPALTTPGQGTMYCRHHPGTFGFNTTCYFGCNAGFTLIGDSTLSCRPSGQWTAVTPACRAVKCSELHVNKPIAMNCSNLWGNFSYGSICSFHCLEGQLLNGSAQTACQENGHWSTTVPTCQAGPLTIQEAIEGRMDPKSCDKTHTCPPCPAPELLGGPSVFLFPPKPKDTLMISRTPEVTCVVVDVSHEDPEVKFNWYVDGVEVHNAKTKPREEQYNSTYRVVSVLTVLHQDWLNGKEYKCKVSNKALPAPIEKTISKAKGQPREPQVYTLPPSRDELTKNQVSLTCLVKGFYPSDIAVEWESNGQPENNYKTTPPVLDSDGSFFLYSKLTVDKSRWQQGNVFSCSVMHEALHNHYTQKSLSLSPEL
# Procedure: The heparin derivatives were desalted and transferred into running buffer using desalting columns. The molar concentrations of the eluates were determined by analysis of UA content (mg/ml) using the phenylphenol method (Blumenkrantz et al. 1973 Anal Biochem 54, 484-9). […] The data was analyzed using BIAevaluation software, version 3. To prepare the biosensor assay, the capturing affinity purified goat anti-human IgG Fc antibody was immobilized onto a carboxymethyl dextran chip. The antibody was injected at a concentration of 50 μg/ml in 50 mM sodium acetate buffer, pH 5.0 for 12 min at […] resulting in a final response of approximately 16,200 response units (RU) in flow cell 1 and 13,400 RU in flow cell 2. Remaining activated groups were blocked with an injection of ethanolamine-HCl. The P-selectin/Fc chimera was captured onto the antibody surface in flow cell 2 (Bachelet L. et al. 2009, Biochim et Biophys Acta 1790, 1416), by injecting the molecule at a concentration of 35 ug/mL, using running buffer (10 mM Hepes, 150 mM NaCl, 1 mM CaCl2, 0.005% Tween-20, pH 7.4, filtered 0.02 μm) in the mobile phase. […] The binding of different heparin derivatives to P-selectin was analyzed using running buffer at 20 μl/min. After the association and dissociation phase of each sample, regeneration of the surface was performed using running buffer containing 0.8 M NaCl. Data from the reference surface was subtracted from the data from the P-selectin surface. Stability of the P-selectin surface was verified by measuring the response from injections of 0.1 mg/mL heparin in the beginning and the end of each experiment.
# The response data at steady-state was plotted against the concentration (data not shown). The data was analyzed using non-linear regression, assuming 1:1 binding. […] The peak value (Mp) was used instead of the (higher) Mw value when calculating the molar concentrations of UFH.
# factor IIa [3] = biological target: T2, factor IIa (Homo sapiens, UniProt P00734+P01008); conditions: comparison value; cited from earlier work
# factor Xa [4] = conditions: comparison value; cited from earlier work
# [5] = daily prophylactic dose, four patients; cited from earlier work
# [6] = test system: SS RBC adhesion to endothelial cells treated with IL-13 and histamine; experiment: In vitro sickle red blood cell adhesion to HUVECs in flow chamber; format: cell-based, human; conditions: for Inhibition of SS RBC adhesion to endothelial cells (overall): HUVECs stimulated with IL-13 and histamine
# Procedure: Primary HUVECs (passage 4 only) were cultured to confluency on gelatin-coated slides in […] basal medium 2 (EBM2; Clonetics, Walkersville, Md.) supplemented with endothelial growth medium 2 (EGM2; Clonetics, Walkersville, Md.). For each assay, a gelatin coated slide with HUVECs grown to confluence was mounted inside a graduated height flow chamber. Both untreated and IL-13/histamine-stimulated slides were initially studied with each SS RBC sample. Subsequent experiments then compared adhesion with and without potential inhibitors of adhesion.
# Human blood samples from patients homozygous for hemoglobin S were collected into citrate tubes.
# In vitro studies of cell adhesion exposed to flowing conditions represent in vivo events, as compared to adhesion assays in which cells are simply allowed to incubate overlaid on a chemical or cellular substrate (e.g. laminin or endothelial cells) and then washed off by either non-controlled forces (e.g. pipette washes) or controlled forces (e.g. rotary motion devices). Flow chambers can produce either a constant shear stress throughout the chamber or a variable shear stress, produced by creating a variable height for the chamber.
# Surface expression of P-selectin on IL-13 and histamine stimulated and unstimulated endothelial cells (HUVECs) were tested by flow cytometry. Measurement of the ability of SS RBC to adhere to these endothelial cells was performed in flow chambers. Negative control experiments included untreated endothelial cells, so that SS RBC adhesion to treated and untreated cells could be compared.
# Multiple dose-finding experiments were conducted.
# [7] = cited from earlier work
# [8] = test system: SS RBC adhesion to the endothelium
# Text: These experiments utilize a previously described animal model (Zennadi et al. Blood 2007), in which window chambers are first implanted into the flanks of nude mice. Three to five days later, human normal or sickle red cells are infused into the mouse (usually through the tail vein) pre-treated with TNF-α (to induce inflammation and upregulate P-selectin expression); mice treated with vehicle only may be studied as controls. Female mice (nu−/nu−) 8-12 weeks in age from Jackson Laboratories, Bar Harbor, Me., were used to perform experiments described.
# RBCs to be infused are pre-labelled with a fluorescent dye. The cells' adhesion may then be observed in subdermal blood vessels visible through the previously implanted window chambers. […] In addition, in some of these experiments, blood samples were drawn during the observation period in order to quantitate specific variables, such as cell survival. This model has the great advantages of providing direct visualization of cells in the context of whole blood and of allowing circulation of transfused cells under normal circulatory pressures.
# factor IIa [9] = biological target: T2, factor IIa; conditions: measured values on the produced DF02
# factor Xa [10] = conditions: measured values on the produced DF02
# [11] = steady-state response, non-linear regression assuming 1:1 binding, P-selectin/Fc chimera captured on chip
# [12] = injected before and after induction of vaso-occlusion
substance,measurement,setting,value
Heparin Sodium,Anti-coagulant effect (bleeding time and coagulation parameters),"[1]; adult rats, i.v.",profound dose-related effects on all parameters investigated
same,"Estimated equipotent doses with respect to effects on bleeding time, normalized vs. heparin",[1],1
same,"Estimated equipotent doses with respect to effects on APTT, normalized vs. heparin",[2],1
same,Kd,human P-selectin; [11],200 nM
same,Corresponding value of specific anticoagulant activity (anti-factor IIa),factor IIa [3],at least 180 IU/mg
same,Corresponding value of specific anticoagulant activity (anti-factor Xa),factor Xa [4],at least 180 IU/mg
same,Pain and days at hospital,[5],pain reduction and fewer days at hospital
Tinzaparin natrium,Kd,human P-selectin; [11],4000 nM
same,Inhibition of SS RBC adhesion to endothelial cells (overall),[6],quite effective in reducing SS RBC adhesion
same,Bleeding events,[7]; clinical study,several cases of bleeding events
same,Duration of hospitalization,[7]; sickle VOC,significantly shortened
same,Duration of the most-severe pain scores,[7]; sickle VOC,significantly shortened
sevuparin sodium [DF02],Anti-coagulant effect (bleeding time and coagulation parameters),"[1]; adult rats, i.v.",reduced anti-coagulant effect
same,Anti-coagulant effect (bleeding time and coagulation parameters),[1]; juvenile rats of age 14±1 days,reduced anti-coagulant effect
same,"Estimated equipotent doses with respect to effects on bleeding time, normalized vs. heparin",[1],30-50
same,"Estimated equipotent doses with respect to effects on APTT, normalized vs. heparin",[2],30-40
same,Kd,human P-selectin,700 nM
same,Effect on SS RBC adhesion,[6]; 100 μg/ml,appeared to inhibit adhesion as much as did higher concentrations; also recorded: easily detectable
same,Inhibition of SS RBC adhesion compared to tinzaparin,"[6]; 400 μg/ml, most samples",equivalent to the same concentration of tinzaparin
same,Effect on SS RBC adhesion,[6]; 10 and 50 μg/ml,little effect
same,Inhibition of SS RBC adhesion to endothelial cells (overall),[6],able to inhibit SS RBC adhesion
same,"Vessel occupancy, decrease",[8]; as compared to a saline injection,50%
same,Effect on adhered SS-RBC,[8]; [12],inhibition and reversal of adhered SS-RBC
same,Effect on blood flow,[8]; [12],partial normalization of the blood flow
same,Number of vessels that reached a normalized blood flow,"[8]; mouse, in vivo",dose dependent effect
same,Effect on PT,adult rats,too weak to allow for comparative estimates
same,Effect on PT,juvenile rats,weak
same,antiIIa activity,factor IIa [9],less than 10 IU/mg
same,antiXa activity,factor Xa [10],less than 10 IU/mg

# Source: patent US9480702B2, “Use of chemically modified heparin derivates in sickle cell disease” (DILAFORETTE AB, priority 2011, dated 2016)
